Assay results reported in patent EP2063887B1, “NEW SMALL MOLECULE INHIBITORS OF MDM2 AND THE USES THEREOF” (priority 2006, dated 2008).
“And” between values parts separate entries of the source, which are not always exact repeats. Identical values can stand only once. Like-named read-outs stand apart in the source and are kept apart here.

Key:
MDM2 protein = MDM2 protein (Homo sapiens, UniProt Q00987); assay: MDM2 binding assay, competition with tracer F-6 (IC50 and calculated Ki); conditions: MDM2 [10 nM]; F-6 [1 nM]; individual determinations, values not in parentheses
PC-3 (p53 null) = assay: Cell growth inhibition (WST-8, 4 days), PC3; type: cell-based, human;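 further: PC-3 is a human prostate cancer line, cultured with test compound throughout the 4-day growth assay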
Description: (§1) To test these predictions, a cell growth assay was developed using human prostate cancer LNCaP (p53 wild-type) and PC-3 (p53 null) cell lines. The toxic effects of compounds of the invention were tested.
(§2) Cells were seeded in 96-well flat bottom cell culture plates at a density of 3-4x 10^3 cells/well and incubated in the presence of compounds for 4 days.

HCT116 p53WT = assay: Cell growth inhibition (WST-8), HCT116 p53WT; type: cell-based; conditions: individual determinations and mean ± SD lines;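 further: compound exposure of the cells lasted 4 days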
Description: as §2

HCT116 p53KO = assay: Cell growth inhibition (WST-8), HCT116 p53KO; type: cell-based;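 further: cells in 96-well plates exposed to compound for 4 days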
Description: as §2

LNCaP (p53 wild-type) = assay: Cell growth inhibition (WST-8, 4 days), LNCaP; type: cell-based, human;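 further: LNCaP human prostate cancer cells exposed to compound for 4 days, with inhibition of cell growth as the measured effect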
Description: as §1, §2

[1] = PC3, p53 null, individual determinations and mean ± SD lines, read-out: PC3 IC50
[2] = HCT116 p53WT, read-out: HCT116 p53WT IC50
[3] = HCT116 p53KO, individual determinations and mean ± SD lines, read-out: HCT116 p53KO IC50
[4] = read-out: LNCaP IC50, individual determinations and mean ± SD lines
[5] = read-out: PC3 IC50, PC3, p53 null, individual determinations and mean ± SD lines
[6] = Homo sapiens, HCT-116, read-out: HCT116 p53WT IC50 (µM), HCT116 p53WT
[7] = read-out: HCT116 p53WT IC50, HCT116 p53WT
[8] = read-out: HCT116 p53KO IC50, HCT116 p53KO, individual determinations and mean ± SD lines
[9] = individual determinations and mean ± SD lines, read-out: LNCaP IC50
[10] = Homo sapiens, 96 h, individual determinations and mean ± SD lines, read-out: LNCaP IC50
[11] = Homo sapiens, HCT-116, HCT116 p53WT, read-out: HCT116 p53WT IC50
[12] = Homo sapiens, HCT-116, HCT116 p53KO, individual determinations and mean ± SD lines, read-out: HCT116 p53KO IC50
[13] = Homo sapiens, 96 h, PC3, p53 null, individual determinations and mean ± SD lines, read-out: PC3 IC50

MDM2 protein, sequence (Q00987 whole entry, species assumed): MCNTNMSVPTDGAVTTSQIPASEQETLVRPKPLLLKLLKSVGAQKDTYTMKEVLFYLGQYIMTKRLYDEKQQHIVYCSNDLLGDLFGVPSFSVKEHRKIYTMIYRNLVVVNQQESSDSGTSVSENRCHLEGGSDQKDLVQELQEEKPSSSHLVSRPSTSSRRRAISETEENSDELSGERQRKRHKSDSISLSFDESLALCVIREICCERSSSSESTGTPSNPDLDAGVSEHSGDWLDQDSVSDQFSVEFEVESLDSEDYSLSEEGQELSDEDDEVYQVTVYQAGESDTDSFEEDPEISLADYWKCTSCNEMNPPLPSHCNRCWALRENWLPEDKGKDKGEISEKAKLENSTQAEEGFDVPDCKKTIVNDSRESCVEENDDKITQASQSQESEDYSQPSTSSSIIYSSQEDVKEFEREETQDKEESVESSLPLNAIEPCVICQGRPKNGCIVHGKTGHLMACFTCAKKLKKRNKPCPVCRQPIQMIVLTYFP

| Compound | IC50 (PC-3 (p53 null); [1]) | IC50 (HCT116 p53WT; [2]) | IC50 (HCT116 p53KO; [3]) | IC50 (LNCaP (p53 wild-type); [9]) | also measured |
| --- | --- | --- | --- | --- | --- |
| 6-CHLORO-4'-(3-CHLORO-4-FLUOROPHENYL)-2'-(2,2-DIMETHYL-PROPYL)-5-FLUORO-2-OXO-1'-OXY-1,2,4',5'-TETRAHYDRO-SPIRO[INDOLE-3,3'-PYRROLE]-5'-CARBOXYLIC ACID (3,4-DIHYDROXY-BUTYL)-AMIDE [MI-319-14] | 40.1 µM and 40.2 µM and > 30 µM | 8.01 µM and 9.27 µM and 5.74 µM and 7.67 µM | > 30 µM | – | IC50 (MDM2 protein): 2.04 µM and 1.66 µM |
| CC(C)(C)C[C@H]1N[C@@H](C(=O)NCCC2CCC(O)C2)[C@H](c2ccc(F)c(Cl)c2)[C@@]12C(=O)Nc1cc(Cl)c(F)cc12 (single isomer, unassigned) [MDM2-319-6, 6-CHLORO-4'-(3-CHLORO-4-FLUOROPHENYL)-2'-(2,2-DIMETHYL-PROPYL)-5-FLUORO-2-OXO-1,2-DIHYDRO-SPIRO[INDOLE-3,3'-PYRROLIDINE]-5'-CARBOXYLIC ACID [2-(3-HYDROXY-CYCLOPENTYL)-ETHYL)-AMIDE] | – | – | – | – | IC50 (LNCaP (p53 wild-type); [4]): 2.58 µM and 1.22 µM and 1.93 µM and 1.91 µM; IC50 (PC-3 (p53 null); Homo sapiens, 96 h, read-out: PC3 IC50 (µM), PC3, p53 null, individual determinations and mean ± SD lines): 21.4 µM; IC50 (PC-3 (p53 null); [5]): 20.8 µM and 14.2 µM and 18.7 µM; IC50 (HCT116 p53WT; [6]): 5.45 µM; IC50 (HCT116 p53WT; [7]): 7.41 µM and 5.96 µM and 6.26 µM; IC50 (HCT116 p53KO; Homo sapiens, HCT-116, read-out: HCT116 p53KO IC50 (µM), HCT116 p53KO, individual determinations and mean ± SD lines): 14.3 µM; IC50 (HCT116 p53KO; [8]): 16.1 µM and 14.6 µM and 15 µM |
| CC(C)(C)C[C@H]1N[C@@H](C(=O)NCC[C@H](O)CO)[C@H](c2ccc(F)c(Cl)c2)[C@@]12C(=O)Nc1cc(Cl)c(F)cc12 [MDM2-319, (2'R,3S,3"S,4'R,5'R) 6-CHLORO-4'-(3-CHLORO-4-FLUORO-PHENYL)-2'-(2,2-DIMETHYL-PROPYL)-5-FLUORO-2-OXO-1,2-DIHYDRO-SPIRO[INDOLE-3,3'-PYRROLIDINE]-5'-CARBOXYLIC ACID (3,4-DIHYDROXY-BUTYL)-AMIDE] | – | 0.717 µM and 0.615 µM and 0.247 µM and 0.52 µM | – | 0.274 µM and 0.184 µM and 0.229 µM | IC50 (HCT116 p53KO; read-out: HCT116 p53KO IC50): 11.8 µM and 12.2 µM and 14.2 µM |
| O=C(NCC[C@H](O)CO)[C@@H]1N[C@H](CC2CCCC2)[C@]2(C(=O)Nc3cc(Cl)c(F)cc32)[C@H]1c1ccc(F)c(Cl)c1 [MDM2-319-1, 6-CHLORO-4'-(3-CHLORO-4-FLUOROPHENYL)-2'-CYCLOPENTYLMETHYL-5-FLUORO-2-OXO-1,2-DIHYDRO-SPIRO[INDOLE-3,3'-PYRROLIDINE]-5'-CARBOXYLIC ACID (3,4-DIHYDROXY-BUTYL)-AMIDE] | – | 1.36 µM | 10.4 µM | 0.36 µM | IC50 (LNCaP (p53 wild-type); [10]): 0.261 µM; IC50 (HCT116 p53WT; [11]): 0.908 µM; IC50 (HCT116 p53KO; [12]): 12.7 µM |
| O=C(NCC[C@H](O)CO)[C@@H]1N[C@H](C2CCCCC2)[C@]2(C(=O)Nc3cc(Cl)c(F)cc32)[C@H]1c1ccc(F)c(Cl)c1 [MDM2-319-4, 6-CHLORO-4'-(3-CHLORO-4-FLUOROPHENYL)-2'-CYCLOHEXYL-5-FLUORO-2-OXO-1,2-DIHYDRO-SPIRO[INDOLE-3,3'-PYRROLIDINE]-5'-CARBOXYLIC ACID (3,4-DIHYDROXY-BUTYL)-AMIDE] | 23.4 µM and 25.6 µM and 22.5 µM | 5.03 µM and 5.8 µM and 2.41 µM and 4.41 µM | 13.1 µM and 26.5 µM and 13.4 µM and 17.6 µM | 1.29 µM and 0.89 µM and 1.21 µM | IC50 (LNCaP (p53 wild-type); [10]): 1.42 µM; IC50 (PC-3 (p53 null); [13]): 18.5 µM |
| CC(C)(C)C[C@H]1N[C@@H](C(=O)NCCC2CCC(O)C2)[C@H](c2ccc(F)c(Cl)c2)[C@@]12C(=O)Nc1cc(Cl)c(F)cc12 (stereo partly shown) [MDM2-319-5] | 5.55 µM and 8.71 µM and 7.91 µM | 1.29 µM and 1.5 µM and 1.23 µM | 5.39 µM and 8.4 µM and 8.1 µM | 0.465 µM and 0.634 µM and 0.56 µM | – |
| COC(C)(C)C[C@H]1N[C@@H](C(=O)NCC[C@H](O)CO)[C@H](c2ccc(F)c(Cl)c2)[C@@]12C(=O)Nc1cc(Cl)c(F)cc12 [MI-319-7] | 34.3 µM | 7.95 µM | – | 1.92 µM | – |
| O=C(NCC[C@H](O)CO)[C@@H]1N[C@H](C2CCCC2)[C@]2(C(=O)Nc3cc(Cl)c(F)cc32)[C@H]1c1ccc(F)c(Cl)c1 [MI-319-8, 6-CHLORO-4'-(3-CHLORO-4-FLUOROPHENYL)-2'-CYCLOPENTYL-5-FLUORO-2-OXO-1,2-DIHYDRO-SPIRO[INDOLE-3,3'-PYRROLIDINE]-5'-CARBOXYLIC ACID (3,4-DIHYDROXY-BUTYL)-AMIDE] | 20.7 µM and 18.4 µM and 23.3 µM | 4.73 µM and 2.74 µM and 3.86 µM | 25.5 µM and 22.7 µM and 26.3 µM | 0.963 µM and 0.893 µM and 0.662 µM and 1.46 µM | IC50 (PC-3 (p53 null); [13]): 30.7 µM; IC50 (HCT116 p53WT; [11]): 4.11 µM; IC50 (HCT116 p53KO; [12]): 30.9 µM |
| CN1CCN(C(=O)[C@@H]2N[C@H](CC(C)(C)C)[C@]3(C(=O)Nc4cc(Cl)c(F)cc43)[C@H]2c2ccc(F)c(Cl)c2)CC1 [MI-319-9] | – | – | – | – | IC50 (LNCaP (p53 wild-type); [4]): 5 µM and 2.46 µM; IC50 (HCT116 p53WT; [6]): 7.48 µM; IC50 (HCT116 p53WT; [7]): 9.2 µM and 4.63 µM and 7.1 µM; IC50 (HCT116 p53KO; [8]): 9.71 µM and 8.19 µM and 4.52 µM and 7.47 µM |
| CC(=O)N1[C@@H](C(=O)NCC[C@H](O)CO)[C@H](c2ccc(F)c(Cl)c2)[C@@]2(C(=O)Nc3cc(Cl)c(F)cc32)[C@H]1CC(C)(C)C [MI-319-13, 1'-ACETYL-6-CHLORO-4'-(3-CHLORO-4-FLUOROPHENYL)-2'-(2,2-DIMETHYLPROPYL)-5-FLUORO-2-OXO-1,2-DIHYDRO-SPIRO[INDOLE-3,3'-PYRROLIDINE]-5'-CARBOXYLIC ACID (3,4-DIHYDROXY-BUTYL)-AMIDE] | – | – | – | – | IC50 (LNCaP (p53 wild-type); [4]): 3.66 µM and 2.32 µM and 4.85 µM and 3.6 µM; IC50 (HCT116 p53WT; [7]): 3.23 µM and 6.37 µM and 11 µM and 6.85 µM |
| CC(C)(C)C[C@H]1N[C@@H](C(=O)NCCn2ccnc2)[C@H](c2ccc(F)c(Cl)c2)[C@@]12C(=O)Nc1cc(Cl)c(F)cc12 [MI-319-17, 6-CHLORO-4'-(3-CHLORO-4-FLUOROPHENYL)-2'-(2,2-DIMETHYL-PROPYL)-5-FLUORO-2-OXO-1,2-DIHYDRO-SPIRO[INDOLE-3,3'-PYRROLIDINE]-5'-CARBOXYLIC ACID (2-IMIDAZOL-1-YL-ETHYL)-AMIDE] | 22 µM and 23.6 µM | 3.79 µM and 3.15 µM | 22.3 µM and 25.1 µM | 1.55 µM and 1.51 µM | IC50 (LNCaP (p53 wild-type); [10]): 1.1 µM; IC50 (PC-3 (p53 null); [13]): 14 µM; IC50 (HCT116 p53WT; [11]): 2.1 µM; IC50 (HCT116 p53KO; [12]): 25.1 µM |
| CC(C)(C)C[C@H]1N[C@@H](C(=O)NC[C@H](O)[C@H](O)CO)[C@H](c2ccc(F)c(Cl)c2)[C@@]12C(=O)Nc1cc(Cl)c(F)cc12 [MI-319-19, 6-CHLORO-4'-(3-CHLORO-4-FLUOROPHENYL)-2'-(2,2-DIMETHYL-PROPYL)-5-FLUORO-2-OXO-1,2-DIHYDRO-SPIRO[INDOLE-3,3'-PYRROLIDINE]-5'-CARBOXYLIC ACID (2,3,4-TRIHYDROXY-BUTYL)-AMIDE] | > 30 µM and 41.6 µM | 2.68 µM and 5.98 µM and 4.6 µM | > 30 µM and 77.6 µM | 2.4 µM and 1.2 µM | IC50 (LNCaP (p53 wild-type); [10]): 1.24 µM; IC50 (PC-3 (p53 null); [13]): 30.7 µM |
| CC(C)(C)C[C@H]1N[C@@H](C(=O)NCCNC(=N)N)[C@H](c2ccc(F)c(Cl)c2)[C@@]12C(=O)Nc1cc(Cl)c(F)cc12 [MI-319-20, 6-CHLORO-4'-(3-CHLORO-4-FLUOROPHENYL)-2'-(2,2-DIMETHYL-PROPYL)-5-FLUORO-2-OXO-1,2-DIHYDRO-SPIRO[INDOLE-3,3'-PYRROLIDINE]-5'-CARBOXYLIC ACID (2-GUANIDINO-ETHYL)-AMIDE] | – | – | – | – | IC50 (PC-3 (p53 null); [5]): > 30 µM and 66.1 µM; IC50 (HCT116 p53WT; [7]): > 30 µM and 93.5 µM; IC50 (HCT116 p53KO; [8]): > 100 µM |
| CC(C)(C)C[C@H]1N[C@@H](C(=O)NCCc2ncc[nH]2)[C@H](c2cccc(Cl)c2)[C@@]12C(=O)Nc1cc(Cl)c(F)cc12 [MI-319-21] | 14.1 µM | 3.88 µM | 13.2 µM | 1.84 µM | – |
